Source: the supplement of paper PMC10307832

Key:
Experiment in all cases: relative viability (nuclei count vs DMSO), 5 days (fraction); higher = more cells survive
[1] = compound: Nc1nc2[nH]cc(CCc3ccc(C(=O)N[C@@H](CCC(=O)O)C(=O)O)cc3)c2c(=O)[nH]1 [Pemetrexed] + Nc1ncn([C@H]2C[C@H](O)[C@@H](CO)O2)c(=O)n1 [Decitabine] (partner 2 µM)
In short: (§1)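 Lung cancer cell lines were pin-tool dosed in 1536-well plates on the day after seeding, with either a lone drug or a fixed anchor-drug dose plus five library-drug doses (not always all listed) in √10 steps. Nuclei were counted on 4× images after 5 days. Relative viability is the ratio of treated-well to vehicle-well nuclei counts, with each value a median of duplicate plates.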

[2] = compound: CC[C@H](Nc1ncnc2[nH]cnc12)c1nc2cccc(F)c2c(=O)n1-c1ccccc1 [Idelalisib] + O=C(CCCCCCC(=O)Nc1ccccc1)NO [Vorinostat] (partner 1 µM)
In short: as §1

[3] = compound: CC[C@H](Nc1ncnc2[nH]cnc12)c1nc2cccc(F)c2c(=O)n1-c1ccccc1 [Idelalisib] + CC(=O)Nc1cccc(-n2c(=O)n(C3CC3)c(=O)c3c(Nc4ccc(I)cc4F)n(C)c(=O)c(C)c32)c1 [Trametinib] (partner 0.02 µM)
In short: as §1

[4] = compound: CC[C@H](Nc1ncnc2[nH]cnc12)c1nc2cccc(F)c2c(=O)n1-c1ccccc1 [Idelalisib] + CC1(C)CCC(c2ccc(Cl)cc2)=C(CN2CCN(c3ccc(C(=O)NS(=O)(=O)c4ccc(N[C@H](CCN5CCOCC5)CSc5ccccc5)c(S(=O)(=O)C(F)(F)F)c4)cc3)CC2)C1 [Navitoclax] (partner 0.5 µM)
In short: as §1

Cell Line	relative viability ([1]; first compound 0.002 µM)	relative viability ([1]; first compound 0.006325 µM)	relative viability ([1]; first compound 0.02 µM)	relative viability ([1]; first compound 0.06325 µM)	relative viability ([1]; first compound 0.2 µM)	relative viability ([2]; first compound 0.04 µM)	relative viability ([2]; first compound 0.1265 µM)	relative viability ([2]; first compound 0.4 µM)	relative viability ([2]; first compound 1.265 µM)	relative viability ([2]; first compound 4 µM)	relative viability ([3]; first compound 0.04 µM)	relative viability ([3]; first compound 0.1265 µM)	relative viability ([3]; first compound 0.4 µM)	relative viability ([3]; first compound 1.265 µM)	relative viability ([3]; first compound 4 µM)	relative viability ([4]; first compound 0.04 µM)	relative viability ([4]; first compound 0.1265 µM)	relative viability ([4]; first compound 0.4 µM)	relative viability ([4]; first compound 1.265 µM)	relative viability ([4]; first compound 4 µM)
NCI-H661	0.586	0.513	0.646	0.608	0.559	0.81	0.779	0.828	0.876	0.814	0.585	0.579	0.535	0.618	0.502					
NCI-H1944	0.378	0.37	0.405	0.427	0.458	0.68	0.526	0.529	0.5	0.48	0.448	0.354	0.336	0.352	0.318	1.03	1.02	1.07	0.923	0.841
NCI-H23	0.287	0.307	0.322	0.325	0.318	0.674	0.657	0.395	0.317	0.62	0.462	0.38	0.281	0.399	0.312	0.843	0.872	0.718	0.765	0.606
NCI-H1648	0.407	0.431	0.655	0.508	0.394	0.395	0.483	0.357	0.224	0.31	0.418	0.482	0.423	0.433	0.397					
NCI-H522	0.624	0.692	0.721	0.691	0.73	0.964	0.846	0.929	0.901	0.956	0.76	0.646	0.668	0.727	0.731					
HCC-366	0.331	0.387	0.346	0.329	0.211	0.391	0.36	0.33	0.293	0.325	0.362	0.464	0.274	0.354	0.233	1.11	1.11	1.01	1.01	0.97
EBC-1																0.413	0.409	0.359	0.442	0.212
ChaGo-K-1	0.538	0.531	0.552	0.531	0.368	0.832	0.702	0.695	0.82	0.732	0.945	0.907	0.865	0.906	0.913	1.03	1.01	1.12	1.09	1.14
LCLC-97TM1	0.241	0.245	0.203	0.233	0.209	0.802	0.871	0.446	0.868	0.685	0.194	0.21	0.216	0.228	0.163	0.468	0.453		0.335	0.337
NCI-H1299																1.04	1.01	1.07	1.12	1.08
EMC-BAC-2	0.965	0.882	1	0.971	0.64	0.639	0.42	0.419	0.496	0.633	0.953	0.875	0.795	0.863	0.859	1.13	1.2	1.12	1.21	1.06
NCI-H441	0.2	0.308	0.244	0.232	0.215	0.851	0.908		0.737	0.758	0.437	0.484		0.615	0.396	0.556	0.67		0.467	0.574
LCLC-103H	0.722	0.723	0.743	0.699	0.76	0.864	0.926	0.664	0.798	0.58	0.659	0.607	0.664	0.63	0.64					
HOP-62	0.198	0.262	0.249	0.204	0.2	0.669	0.66	0.576	0.619	0.491	0.345	0.354	0.292	0.362	0.247	1.01	1.03	1.01	1.29	1.03
NCI-H1793	0.512	0.449	0.583	0.512	0.528	0.764	0.699		0.75	0.582	0.431	0.467		0.475	0.383	0.379	0.462	0.259	0.346	0.22
IA-LM						0.607	0.907	0.913	1.02	0.944						0.905	0.856	1.01	1.08	0.919
CAL-12T						0.831	0.689	0.65	0.704	0.648	0.422	0.28	0.276	0.363	0.339	1.24	1.32	1.14	1.29	1.06
A549	0.234	0.213	0.194	0.346	0.281											1.5	1.23	1.22	1.33	1.02
Calu-6																0.987	0.938	0.755	0.822	0.776
NCI-H358	0.177	0.208	0.214	0.155	0.127	0.643	0.63	0.588	0.567	0.593	0.191	0.146	0.149	0.129	0.148					
NCI-H2342	0.675	0.701	0.767	0.716	0.835	0.801	0.736	0.689	0.664	0.736	0.804	0.851	0.779	0.753	0.658					
